This is an account of results in patent publication US10011635B2, “Cyclic peptide conjugates and methods of use” (priority 2013, dated 2018).

By MTD is commonly meant the highest dose tested that stayed within the study's limit of toxicity.

For one data set, the system named is U266 cells. The experiment in a line: In vitro cytotoxicity, PI staining and flow cytometry (U266). In kind it is cell-based, human. The conditions noted are these: 1 hour at 37° C., PI staining, flow cytometry; compared to medium alone.
In the next data set the test system is H929 cells. The experiment in a line: In vitro cytotoxicity, PI staining, flow cytometry and microscopy (H929). In kind it is cell-based, human. The conditions noted are these: 1 hour at 37° C., flow cytometry, compared to medium alone. For orientation: Flow cytometry measures light scatter and fluorescence of single cells or particles in a stream.
For a further data set, the system named is 5TGM1 cells. Briefly: 5TGM1 murine myeloma model in vivo (survival, serum IgG2b). The conditions noted are these: 5TGM1 i.v. in C57BL6/KaLwRij mice; i.v. once weekly for 3 weeks; 10 mg/kg Fc-Sec-MTI-101, 10 mg/kg Fc-stop or MTI-101 0.3285 mg/kg; n=5. The protocol: One million 5TGM1 cells were injected intravenously (i.v.) in C57BL6/KaLwRij mice. Mice injected i.v. were treated once weekly for 3 weeks with 10 mg/kg Fc-Sec-MTI-101, 10 mg/kg Fc-stop, or an equal payload of MTI-101 (0.3285 mg/kg). […] Medium survival was 35 days for control and MTI-101 IV equal payload, 26 days for […] and 62 days for Fc-Sec-MTI-101 (n=5 animals per group), as shown in FIG. 18B. IgG2b levels were measured by ELISA 28 days following tumor inoculation.
This is an excellent immune competent MM model in which drug response is monitored in the confines of the bone marrow microenvironment. […] 5TGM1 cells (1×10^6 in 100 μL of PBS) were injected intravenously (i.v.) into the tail vein of 6-week old C57 BL/KaLwRij mice (Harlen, Netherlands). Tumor was allowed to engraft for 10 days prior to the initiation of drug treatment.
To quantify tumor burden, blood was collected by submandibular bleeding and mice were monitored weekly by measuring 5TGM1 secreted IgG2b (paraprotein) in the serum by ELISA (FIG. 18B). Hind limb paralysis and hunching were considered as additional surrogate markers for morbidity.

Data set [1] is described as follows: Maximum tolerated dose of MTI-101. Further details: species or system C57 BL/KaLwRij mice. The conditions noted are these: mouse, in vivo, ip; i.p. 3× weekly for three weeks.
The test system of a further data set is multiple myeloma (MM). The conditions noted are these: summary statement, no test described; cited from earlier work.

Each structure is given as a SMILES string. Numbered stars: 1 amine (or outer) side, 2 acyl side, 3 side chain; on linkers, the order of the positions; unused ones are H or OH. Bridge positions count the residues as written; N and C are the ends. Square brackets hold non-standard residues; d marks the D form. Peptide text beside a SMILES is read from it. * marks the point of attachment. dProlinol(O-CH2CO) = O=C(COC[C@H]1CCCN1[*:1])[*:2]; N(2-Aminoethyl)Gly = O=C(CN(CCN[*:3])[*:1])[*:2]; Nle = CCCC[C@H](N)C(=O)O; Ms = CS(=O)(=O)*

Protocol for H929 cells: FSC/SSC scatter densities distinguished live cells (right population) and dead cells (left population). This was confirmed by PI staining.
(§1) The cells were incubated with the conjugates and negative and positive controls for 1 hour at 37° C. followed by propidium iodide (PI) staining and flow cytometry analysis using FSC/SSC scatter densities and fluorescence to distinguish live and dead cells.
Protocol for U266 cells: as §1

Consider `CCCC[C@@H]1NC(=O)CN(S(C)(=O)=O)CCNC(=O)[C@H](CCCCN)NC(=O)[C@H](CC(C)C)NC(=O)[C@H](CCCCN)NC(=O)[C@H](CC(C)C)NC(=O)[C@H](CCCCN)NC(=O)COC[C@H]2CCCN2C(=O)[C@H](Cc2c[nH]c3ccccc23)NC(=O)[C@H](C)NC(=O)[C@H](C(C)C)NC(=O)[C@H](C(C)C)NC1=O` [MTI-101] (Ms-[N(2-Aminoethyl)Gly][Nle]VVAW[dProlinol(O-CH2CO)]KLKLK; lactam 1-C), for which the “cytotoxicity toward U266 cells” value with U266 cells was “clearly killed”. Also, the “cytotoxicity toward H929 cells” value in the data set with H929 cells is recorded as “clearly killed”. In the data set with 5TGM1 cells, the Medium survival is 35 days. This molecule yielded an MTD in data set [1] of 10 mg/kg. Moreover, in the data set with multiple myeloma (MM), the IC50 potency entry is reported as “near nM”.
